Measurements: patent publication US12023348B2, “EGR1 targeting molecules for the treatment of inflammatory and hyperproliferative conditions” (The Medical Research, Infrastructure and Health Services …, priority 2015, dated 2024)
Where a name gives a salt, the structure may show the parent alone.

Experiments:
SAMD9 promoter = test: High-throughput luciferase reporter screen in HeLa line stably expressing 585 bp SAMD9 promoter fragment; format: cell-based, human; settings: fold increase in promoter activity by luciferase assay vs cells treated with vehicle only, test drugs 10 μM, 24 hours; for fold induction at 10 µM: Homo sapiens, HeLa, read-out: SAMD9 expression fold change in HeLa reporter assay
Description: HeLa cell lines stably expressing the constructs were generated under neomycin selection. Briefly, pGL4.17 containing a SAMD9 promoter fragment spanning 585 bp upstream to the TSS and an empty pGL4.17 vector were transfected into HeLa cells. Forty eight hours after transfection, standard medium was replaced with medium containing 600 μg/ml G418 (Sigma-Aldrich), cells were kept under G418 selection and the selective medium was replaced approximately every 2-3 days. After two passages, colonies of stable cells were isolated, expanded and frozen for further use.
Test drugs were dispensed at a concentration of 10 μM by a robotic system into 96-well plates containing 9000 cells/well expressing the pGL4.17 reporter construct carrying a 585 bp SAMD9 promoter fragment operably linked to luciferase gene or the empty pGL4.17 luciferase construct (Promega cat. no. E6721). Medium was removed after 24 hours and the cells subjected to Steady-Glo luciferase lysis-substrate solution assay (Promega) as described above. Liquid handling was done with the Tecan (Tecan) Freedom 150 (Robotic & MCA liquid Handling System) and the luciferase reading was done with a robot integrated Tecan Infinite® M1000 reader.
This cell line was then used to robotically screen a total of 1496 compounds obtained from the National Cancer Institute Diversity Set III and Oncology Drugs Set III small molecule libraries.

SAMD9 = SAMD9 RNA expression by qRT-PCR in HeLa cells; format: cell-based, human; settings: fold increase in RNA gene expression vs cells treated with vehicle only
Description: HeLa cells were cultured in DMEM 4.5 g/l glucose medium containing 10% FCS, 1% L-glutamine and 1% penicillin and streptomycin (Biological Industries) and grown at 37° C. and 5% CO2.
Of note, when cells were incubated with CaCx and ApDx (NCI, MA USA), they were grown in the appropriate medium with 0.1% FCS only.
RNA was extracted from cell cultures using an RNA extraction kit (Roche Diagnostics, Mahheim, Germany). cDNA was synthesized from 500 ng of total RNA using the Verso cDNA kit (Thermo Fisher Scientific, Waltham, MA, USA). cDNA PCR amplification was carried out using the Fast SYBR Green Master Mix in a StepOnePlus™ Real-Time PCR System (Applied Biosystems, Foster City, CA, USA) with gene-specific intron-crossing oligonucleotide pairs listed in Table 1 (below). For quantification, standard curves were obtained using serially diluted cDNA amplified in the same qRT-PCR run. The melting temperature (Tm) of the amplified products was measured to confirm the specificity of the reaction conditions. Cycling conditions were as follows: 95° C. for 10 minutes, 95° C. for 10 seconds, 62° C. for 15 seconds, and 72° C. for 25 seconds for a total of 40 cycles. Each sample was analyzed in triplicate. mRNA expression level for target gene was normalized to GAPDH. The results are based the amount of target, normalized to an endogenous reference (IACTB) and relative to a calibrator, as calculated by 2-ΔΔCT. All samples were run in triplicate. The expression levels of target genes were expressed as mRNA relative units.
The potential ability of these 31 molecules to induce SAMD9 expression in cell cultures was then scrutinized.

Compound	fold induction at 10 µM (SAMD9 promoter)	SAMD9 expression fold change in HeLa cells (SAMD9)	SAMD9 expression fold change in HeLa reporter assay (SAMD9 promoter)
COc1ccc(/C=C2\Cc3ccccc3C2=O)cc1OC [Compound 643174, 2-(3,4-Dimethoxybenzylidene)-1-indanone]	2.17	1.29 fold	
C[C@@H](CSC(=O)c1ccccc1)C(=O)N1c2ccccc2C[C@@H]1C(=O)O [Compound 604535, (2R)-1-[(2R)-2-methyl-3-phenylcarbonylsulfanyl-propanoyl]-2,3-dihydroindole-2-carboxylic acid]	2.26	1.07 fold	
Cc1cc(Cl)ccc1N1C(=O)C(=O)C(c2nc3ccccc3o2)C(=O)C1=O [Compound 623051, 4-(1,3-Benzoxazol-2-yl)-1-(4-chloro-2-methylphenyl)-2,3,5,6-piperidinetetrone]	2.74	0.97 fold	
COc1ccc(-c2csc(=[N+]3CCCCC3)s2)cc1 [Compound 302358, Piperidinium, 1-[4-(4-methoxyphenyl)-1,3-dithiol-2-ylidene]-, sulfate (1:1)]	2.72	0.84 fold	
COc1cc2c3c(n(C)c(=O)c2cc1OC)-c1cc2c(cc1C3=O)OCO2 [Compound 314622, 5H-[1,3]Dioxolo[5,6]indeno[1,2-c]isoquinoline-5,12-dione, 2,3-dimethoxy-6-methyl-]	2.31	2.51 fold	
S=C(Nc1nnc(-c2ccccc2)c(-c2ccccc2)n1)N(/N=C/C=C/c1ccccc1)c1ccccc1 [Compound 640637, 3-Phenylacrylaldehyde N′-(5,6-diphenyl-1,2,4-triazin-3-yl)-N-phenylthiosemicarbazone]	2.32	1.16 fold	
CN(C)c1ccc(/C=C2\Cc3ccccc3C2=O)cc1Br [Compound 643163, 2-(3-Bromo-4-dimethylaminobenzylidene)-1-indanone]	2.64	0.79 fold	
O=C1Oc2ccccc2C(=O)/C1=C1/C=C(c2ccccc2)SS1 [Compound 293927, (3E)-3-(5-phenyl-3H-1,2-dithiol-3-ylidene)-2H-chromene-2,4(3H)-dione]	2.82	1.77 fold	
OC(CN1CCCCC1)c1ccc(/C=C/c2ccc(Cl)cc2)cc1 (stereo not drawn) [Compound 26040]	3.38	1.2 fold	
O=C1C(O)=C(CC=C(Cl)Cl)C(=O)c2ccccc21 [Compound 126771, Dichlorolawsone]	2.23	3.27 fold	
O=C(c1nc2ccc(Cl)cc2nc1O)C(O)c1ccc2c(c1)OCO2 (stereo not drawn) [Compound 642649, 2-(1,3-Benzodioxol-5-yl)-1-(6-chloro-3-hydroxy-2-quinoxalinyl)-2-hydroxyethanone]	2.8	0.85 fold	
COc1c2c(cc3oc(=O)ccc13)OC(C)(C)C=C2 [Compound 35542, Xanthoxylin N]	4.08	4.71 fold	
CN(C)c1ccc2c(SCC(=O)OCC(=O)[C@@]3(O)CC[C@H]4[C@@H]5CCC6=CC(=O)C=C[C@]6(C)[C@H]5C(=O)C[C@@]43C)c3ccc(N(C)C)cc3nc2c1 [Compound 337851, Predorine]	2.37	1.23 fold	
Cc1cccc(NC(=O)C=Cc2ccc([N+](=O)[O-])cc2)c1 [Compound 139109, N-(3-methylphenyl)-3-(4-nitrophenyl)acrylamide]	2.03	0.72 fold	
COc1cccc2c1C(=O)c1c(O)c3c(c(O)c1C2=O)C[C@@](O)(C(C)=O)C[C@@H]3O[C@H]1C[C@H](N(Cc2ccccc2)Cc2ccccc2)[C@H](O)[C@H](C)O1 [Compound 268242, N,N-Dibenzyldaunorubicin hydrochloride]	4.84	3.66 fold	
CCN(CC)CCNc1ccc2nc(C)n3c4ccc(OC)cc4c(=O)c1c23.Cl [Compound 637993, 5-{[2-(diethylamino)ethyl]amino}-8-methoxy-1-methyl-6h-imidazo[4,5,1-de] acridin-6-one hydrochloride (1:1)]	3.7	6.34 fold	
Cc1c2cnccc2c(C)c2c1c1ccccc1n2CCOC(=O)c1ccccc1 [Compound 163443, 2-(5,11-dimethyl-6H-pyrido [4,3-b]carbazol-6-yl) ethyl benzoate]	2.24	6.49 fold	
CCN1C(=O)/C(=C\Nc2ccccc2)S/C1=N\Nc1ncc(CC(=O)Nc2ccccc2C)s1 [Compound 658350, 2-(2-(2-(5-(Anilinomethylene)-3-ethyl-4-oxo-1,3-thiazolidin-2-ylidene)hydrazino)-1,3-thiazol-5-yl)-N-(2-methylphenyl) acetamide]	2.03	1.01 fold	
COc1ccc2c(c1[N+](=O)[O-])CC[C@@H]1[C@@H]2CC[C@]2(C)C(=O)CC[C@@H]12 [Compound 321803, 4-Nitroestrone 3-methyl ether]			2.71 fold
Nc1ncnc2c1nc(Cl)n2[C@@H]1O[C@@H]2COP(=O)(O)O[C@H]2[C@H]1O [Compound 284751, Adenosine, 8-chloro-, cyclic 3′,5′-(hydrogen phosphate)]	2.14	0.87 fold	
CN(C)C(=S)/N=c1\ss/c(=N\C(=S)N(C)C)n1-c1ccc2c(c1)OCO2 [Compound 622589, 3,3′-[4-(1,3-benzodioxol-5-yl)-1,2,4-dithiazolidine-3,5-diylidene]bis[1,1-dimethyl(thiourea)]]	4.32	1.17 fold	
N#CC(NCc1cccc(CNC(C#N)c2ccccc2)c1)c1ccccc1 (stereo not drawn) [Compound 681730, 2,2′-(1,3-phenylenebis (methylene))bis(azanediyl)bis(2-phenylacetonitrile)]	2.48	1.6 fold	
CCN(CC)CCOc1ccccc1/C=C/c1noc2ccccc12 [Compound 601101, 2-(2-(2-(1,2-Benzisoxazol-3-yl)vinyl)phenoxy)-N,N-diethylethanamine hydrochloride]	2.13		
NC(Cc1ccc2oc3cc(=O)c4ccccc4c-3nc2c1)C(=O)O [Compound 672425, 1,2-Benzo-8-(L-alanyl)-3-phenoxazone nitrate salt]	2.11	0.98 fold	
COc1ccc(/C=C2\CCc3ccccc3C2=O)cc1OC [Compound 643175, 2-(3,4-Dimethoxybenzylidene)-1-tetralone]	2.47	0.89 fold	
CN(CCc1ccccn1)c1ccc2c(c1)C(=O)c1ccccc1-2 [Compound 24048, 2-(methyl(2-(2-pyridinyl)ethyl)amino)-9H-fluoren-9-one]	2.84	1.62 fold	
COc1ccc(/C(=N\O)C(c2ccc(OC)cc2)C2C(=O)Oc3ccccc32)cc1 (stereo not drawn) [Compound 641607, 3-(2-(Hydroxyimino)-1,2-bis(4-methoxyphenyl)ethyl)-1-benzofuran-2(3H)-one]	3.25	1.27 fold	
CC[C@@]1(O)C[C@H](OC2CC(N(C)C)C(OC3CC(O)C(CC4CC(O)C(O)C(C)O4)C(C)O3)C(C)O2)c2c(cc3c(c2O)C(=O)c2c(O)ccc(O)c2C3=O)[C@H]1C(=O)OC (stereo partly drawn) [Compound 265211, Rhodirubin E]	3.36	1.47 fold	
